The results in this text go back to patent US5569668A (priority 1995, dated 1996).

Converted amounts (≈) assume the structure as drawn. Read-outs that look alike come from different tables or passages of the source.

What all share (format): cell-based
In assay [1] the test system is Staphylococcus aureus ATCC29213. As to the kind of experiment: MIC of nematophin and its derivatives on Staphylococcus aureus ATCC29213.
Another assay has as its system Bacillus subtilis. As to the kind of experiment: MIC of nematophin on candidate microbial pathogens (Bacillus subtilis). The note with it: 24 h, 35° C., Table 1, read-out: Minimum Inhibitory Concentration (MIC).
For another assay, the system named is S. aureus 0017. Nature of the assay: microbe, parasite or virus in culture. Particulars: Staphylococcus aureus, 0017, 24 h; read-out: Minimum Inhibitory Concentration (MIC).
The test system of the next assay is S. aureus 0012. As to the kind of experiment: microbe, parasite or virus in culture. The note with it: Staphylococcus aureus, 0012, 24 h; read-out: Minimum Inhibitory Concentration (MIC).
The subject of a further assay is Botrytis cinerea. Nature of the assay: MIC of nematophin on candidate microbial pathogens (Botrytis cinerea). The note with it: 48 h, 2 d, 24° C., Table 1, read-out: Minimum Inhibitory Concentration (MIC).
Assay [2] concerns antibiotic resistant Staphylococcus. Particulars: conclusion from Table 1 MICs.
In assay [3] the test system is Escherichia coli ATCC25922. Nature of the assay: MIC of nematophin on candidate microbial pathogens (Escherichia coli ATCC25922). The note with it: 24 h, 35° C., Table 1, read-out: Minimum Inhibitory Concentration (MIC).
Another assay concerns Phytophthora infestans. Nature of the assay: microbe, parasite or virus in culture. Particulars: in Secale cereale, 96 h, read-out: Minimum Inhibitory Concentration (MIC).
The mark [4] stands for this setting: Table 2, similar bioassays as for nematophin, read-out: Minimum Inhibitory Concentration (MIC) of the derivatives of nematophin.
[5] abbreviates: 24 h, 35° C., Table 1, read-out: Minimum Inhibitory Concentration (MIC).

For `CC(=O)C(=O)NCCc1c[nH]c2ccccc12` [PAMIDE, 3-indoleethyl(2'-oxo)propanamide], in assay [1] (setting [4]), the MIC was determined as 100 µg/mL.

Consider `CCC(=O)C(=O)NCCc1c[nH]c2ccccc12` [BAMIDE, 3-indoleethyl(2'-oxo)butanamide], for which, in assay [1] (setting [4]), the MIC was determined as 100 µg/mL.

`CC(C)C(=O)C(=O)NCCc1c[nH]c2ccccc12` [MAMIDE]: the MIC in assay [1] (setting [4]) came to 3 µg/mL.

Turning to `CCC(C)C(=O)C(=O)NCCc1c[nH]c2ccccc12` (single isomer, unassigned) [NID, 3-indoleethyl 3-methyl-2-oxo-pentanamide], the MIC with Bacillus subtilis is 12 µg/mL; with S. aureus 0017, 0.7 µg/mL (≈ 2.57 µM); with S. aureus 0012, 0.7 µg/mL (≈ 2.57 µM); in assay [1] (setting [5]) it was 0.7 µg/mL; with Botrytis cinerea, 12 µg/mL; in assay [3], greater than 100 µg/mL. The “antibiotic properties, in particular against antibiotic resistant Staphylococcus” value in assay [2] is on record as “potent properties”.

Take `CCC(C)C(=O)C(=O)OCCc1c[nH]c2ccccc12` (stereo not shown) [OIN, 3-indoleethyl(3'-methyl-2'-oxo)pentanoate]: in assay [1] (setting [4]), the MIC worked out at 25 µg/mL.

Regarding `CCC(C)C(=O)C(=O)NCCc1c[nH]c2cc(F)ccc12` (stereo not shown) [6-FIN], in assay [1] (setting [4]), the MIC turned out to be 0.7 µg/mL.

For `CCC(C)C(=O)C(=O)NCCc1c[nH]c2ccccc12` (racemic) [SID, 3-indoleethyl(3'-methyl-2'-oxo)pentanamide], the MIC in the assay with Bacillus subtilis was found to be 12 µg/mL; with S. aureus 0017, 1.5 µg/mL (≈ 5.51 µM); with S. aureus 0012, 1.5 µg/mL (≈ 5.51 µM); in assay [1] (setting [5]) it was 1.5 µg/mL; in the assay on Phytophthora infestans, 2.5 µg/mL (≈ 9.18 µM); in the assay with Botrytis cinerea, 12 µg/mL. Further, in assay [3], the MIC is greater than 100 µg/mL. Besides, the “antibiotic properties, in particular against antibiotic resistant Staphylococcus” value in assay [2] was “potent properties”.

`CCC(C)C(=O)C(=O)NCCc1c[nH]c2ccc(OC)cc12` (stereo not shown) [5-MeOIN]: the MIC in assay [1] (setting [4]) worked out at 3 µg/mL.

As to `CCC(C)C(=O)C(=O)NCCc1c[nH]c2ccc(C)cc12` (stereo not shown) [5-MeIN], the MIC in assay [1] (setting [4]) amounted to 3 µg/mL.
